Source: patent US8318504B2, “MRP2 efflux pathway prognostic method” (priority 2009, dated 2012)

Target: T1, OATP1B1 (Homo sapiens, UniProt Q9Y6L6)
T1 construct: expressed in transfected cells; host or cells: CHO cells (stably transfected; Treiber et al. 2007)
T1 sequence (Q9Y6L6 1-691): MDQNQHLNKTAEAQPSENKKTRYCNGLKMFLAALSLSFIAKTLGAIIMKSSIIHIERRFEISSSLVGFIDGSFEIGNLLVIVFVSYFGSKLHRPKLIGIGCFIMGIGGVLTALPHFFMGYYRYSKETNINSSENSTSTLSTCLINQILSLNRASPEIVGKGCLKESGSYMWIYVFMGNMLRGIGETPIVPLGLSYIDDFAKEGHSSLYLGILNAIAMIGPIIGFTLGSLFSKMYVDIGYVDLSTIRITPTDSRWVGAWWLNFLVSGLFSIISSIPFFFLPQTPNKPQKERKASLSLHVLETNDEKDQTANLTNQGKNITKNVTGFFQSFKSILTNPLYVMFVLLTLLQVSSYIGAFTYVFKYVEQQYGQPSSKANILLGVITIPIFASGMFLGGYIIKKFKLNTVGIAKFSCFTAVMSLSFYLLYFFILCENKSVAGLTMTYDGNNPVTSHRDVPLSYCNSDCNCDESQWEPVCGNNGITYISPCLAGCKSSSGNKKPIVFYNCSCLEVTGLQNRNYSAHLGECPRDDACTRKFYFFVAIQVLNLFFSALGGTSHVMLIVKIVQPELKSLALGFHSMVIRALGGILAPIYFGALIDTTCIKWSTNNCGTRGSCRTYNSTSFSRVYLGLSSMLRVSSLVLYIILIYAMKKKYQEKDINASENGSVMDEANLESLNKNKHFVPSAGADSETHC
Experiment: Inhibition by CLF of estrone-3-sulfate transport in CHO cells expressing OATP1B1
Assay type: cell-based
Details: 0, 5 or 50 μmol/L CLF, 1 μmol/L estrone-3-sulfate
Protocol: FIGS. 3A-3D relate to inhibition of transport activity of hepatocellular uptake transporters by CLF. CHO cells expressing NTCP, OATP1B1, OATP1B3 and OATP2B1 were incubated with 0, 5 or 50 μmol/L CLF and with the substrates, 2.5 μmol/L TC, 1 μmol/L estrone-3-sulfate, 10 μmol/L TC and 1 μmol/L estrone-3-sulfate, respectively. Data represent means±SD of triplicate determinations.
For all transport experiments, cells grown on 3 cm culture dishes were cultured for 24 hours in media supplemented with 5 mmol/L sodium-butyrate to increase expression levels of transfected transporters [Palermo D P et al., J Biotechnol 1991 June; 19(1):35-47]. • Transport experiments with uptake of radioactively labeled substrates: These experiments were performed as described by Huber R D et al. [Am J Physiol Cell Physiol 2007 February; 292(2):C795-C806]. • Transport experiments with uptake of CLF: Uptake was performed in the same buffers as for the radioactive substrates above. […] After complete solubilization, 1.5 ml was used to measure fluorescence in a Perkin-Elmer LS-5 luminescence-spectrometer set at λexe 486 nm (slit 10 nm) and λem 520 nm (slit 5 nm). Protein was determined with the bicinchoninic acid method using a kit from Interchim (Montfuçon, France). […]

Question: With `CC(CCC(=O)NC(CCCCNC(=S)Nc1ccc(-c2c3ccc(=O)cc-3oc3cc(O)ccc23)c(C(=O)O)c1)C(=O)O)C1CCC2C3C(O)CC4CC(O)CCC4(C)C3CC(O)C12C` (stereo not shown) [CLF, cholyl lysyl fluorescein] as the molecule, how does the “inhibition of transport of estrone-3-sulfate mediated by OATP1B1 by CLF” value read?
Answer: Its value is “much less efficiently”.
